The supplement of paper PMC10307832

Legend:
Test in all cases: relative viability (nuclei count vs DMSO), 5 days (fraction); higher = more cells survive
[1] = compound: CC1(C)CCC(CN2CCN(c3ccc(C(=O)NS(=O)(=O)c4ccc(NCC5CCOCC5)c([N+](=O)[O-])c4)c(Oc4cnc5[nH]ccc5c4)c3)CC2)=C(c2ccc(Cl)cc2)C1 [Venetoclax] + N=C(N)NC(=N)NCCc1ccccc1 [Phenformin] (partner 250 µM)
How it was run: (§1)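 The day after seeding in 1536-well plates, lung cancer cell lines were treated by pin tool with a single drug, or with a fixed anchor-drug dose together with five library-drug doses (not always all listed) in √10 steps. After 5 days, a combined fix-and-stain solution (final 0.05% Triton X-100, 1% formaldehyde, 1 ug/ml Hoechst) was added. Nuclei counted on 4× images gave relative viability as treated counts over vehicle counts, reported as the median of duplicate plates.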

[2] = compound: Cn1cnc2c(F)c(Nc3ccc(Br)cc3Cl)c(C(=O)NOCCO)cc21 [Selumetinib] + CC1(C)CCC(c2ccc(Cl)cc2)=C(CN2CCN(c3ccc(C(=O)NS(=O)(=O)c4ccc(N[C@H](CCN5CCOCC5)CSc5ccccc5)c(S(=O)(=O)C(F)(F)F)c4)cc3)CC2)C1 [Navitoclax] (partner 0.5 µM)
How it was run: as §1

[3] = compound: CC1(C)CCC(CN2CCN(c3ccc(C(=O)NS(=O)(=O)c4ccc(NCC5CCOCC5)c([N+](=O)[O-])c4)c(Oc4cnc5[nH]ccc5c4)c3)CC2)=C(c2ccc(Cl)cc2)C1 [Venetoclax] + Nc1ncn([C@H]2C[C@H](O)[C@@H](CO)O2)c(=O)n1 [Decitabine] (partner 2 µM)
How it was run: as §1

[4] = compound: CC1(C)CCC(CN2CCN(c3ccc(C(=O)NS(=O)(=O)c4ccc(NCC5CCOCC5)c([N+](=O)[O-])c4)c(Oc4cnc5[nH]ccc5c4)c3)CC2)=C(c2ccc(Cl)cc2)C1 [Venetoclax] + CC(=O)Nc1cccc(-n2c(=O)n(C3CC3)c(=O)c3c(Nc4ccc(I)cc4F)n(C)c(=O)c(C)c32)c1 [Trametinib] (partner 0.02 µM)
How it was run: as §1

Cell Line | relative viability ([1]; first compound 0.01 µM) | relative viability ([1]; first compound 0.03162 µM) | relative viability ([1]; first compound 0.1 µM) | relative viability ([1]; first compound 0.3162 µM) | relative viability ([1]; first compound 1 µM) | relative viability ([2]; first compound 0.02 µM) | relative viability ([2]; first compound 0.06325 µM) | relative viability ([2]; first compound 0.2 µM) | relative viability ([2]; first compound 0.6325 µM) | relative viability ([3]; first compound 0.01 µM) | relative viability ([3]; first compound 0.03162 µM) | relative viability ([3]; first compound 0.1 µM) | relative viability ([3]; first compound 0.3162 µM) | relative viability ([3]; first compound 1 µM) | relative viability ([4]; first compound 0.01 µM) | relative viability ([4]; first compound 0.03162 µM) | relative viability ([4]; first compound 0.1 µM) | relative viability ([4]; first compound 0.3162 µM) | relative viability ([4]; first compound 1 µM)
NCI-H1623 | 0.556 | 0.607 | 0.597 | 0.64 | 0.63 |  |  |  |  |  |  |  |  |  |  |  |  |  | 
Calu-6 |  |  |  |  |  | 0.727 | 0.513 | 0.355 | 0.234 |  |  |  |  |  |  |  |  |  | 
LCLC-103H | 0.335 | 0.298 | 0.352 | 0.313 | 0.333 |  |  |  |  | 0.767 | 0.713 | 0.733 | 0.752 | 0.788 | 0.714 | 0.663 | 0.635 | 0.679 | 0.654
CAL-12T | 0.543 | 0.575 | 0.567 | 0.555 | 0.539 | 1.28 | 1.36 | 0.986 | 0.921 |  |  |  |  |  | 0.24 | 0.385 | 0.357 | 0.379 | 0.278
SW 1573 | 0.425 | 0.373 | 0.327 | 0.47 | 0.392 | 0.965 | 0.853 | 0.716 | 0.729 | 0.526 | 0.553 | 0.572 | 0.475 | 0.437 | 0.571 | 0.612 | 0.486 | 0.603 | 0.545
NCI-H1666 | 0.546 | 0.605 | 0.531 | 0.582 | 0.56 | 0.773 | 0.582 | 0.592 | 0.479 | 0.719 | 0.783 | 0.748 | 0.676 | 0.741 | 0.764 | 0.809 | 0.73 | 0.824 | 0.858
BEN | 0.26 | 0.306 | 0.302 | 0.273 | 0.264 | 0.0655 | 0.0564 | 0.0657 | 0.0674 | 0.747 | 0.721 | 0.737 | 0.653 | 0.673 | 1.1 | 1.02 | 0.864 | 1.04 | 1
EMC-BAC-2 | 0.483 | 0.524 | 0.519 | 0.512 | 0.475 | 0.964 | 0.989 | 1.07 | 1.06 | 0.983 | 0.989 | 0.981 | 1.02 | 0.956 | 0.915 | 0.965 | 0.887 | 0.857 | 0.906
NCI-H1299 |  |  |  |  |  | 1.02 | 1.09 | 1.05 | 0.899 |  |  |  |  |  |  |  |  |  | 
ABC-1 | 0.234 | 0.269 | 0.236 | 0.241 | 0.228 |  |  |  |  | 1.07 | 1.24 | 1.02 | 1.12 | 1.24 |  |  |  |  | 
